Laboratory results published in US20120252773A1, “Method and composition for inhibiting cell proliferation and angiogenesis” (priority 2005, published 2012).

What follows are compounds tested on Human Dermal Microvascular Endothelial Cells (HDMVEC) (assay: Growth inhibition of HDMVEC cells, MTT, 7 days). Conditions: Endothelial cell, HDMVEC growth, procedures of Example 3, read-out: Inhibitory Effect (IC50 Value).
Type: cell-based
Experimental: To measure the inhibitory activity of (2) on growth of HDMVEC cells (Clonetics, San Diego, Calif.), 2,000 cells were seeded in each well of a 96-well plate in […] of EGM medium (Clonetics) supplemented with 5% fetal bovine serum (Sigma). The plate was incubated at 37° C. in a tissue culture incubator for 24 h, and then various concentrations of (2) dissolved in EGM were added to each well in 5-10 μl aliquots. Four wells were used for each concentration. Medium in each well was renewed with fresh test solution added every other day. After 7 days of culture, the viable cells were measured using reagents from an MTT kit (Promega Corporation, Madison, Wis.), using instructions provided by the supplier. The number of viable cells in treated wells relative to those in control wells gave the percentage of inhibition.
The procedures of Example 3 were carried out to evaluate the inhibitory effect of various compounds of the invention on the growth of HDMVEC cells (Clonetics, San Diego, Calif.).

Row | SMILES | IC50 [µM]
1 | CCN(CC)Cc1cc(OC)c(OCCC2CCC3C4C(CCC23C)c2ccc(O)cc2C[C@H]4C)c(OC)c1 (some centres unmarked) | 3.6
2 | CCN(CC)Cc1ccc(OC/C=C2\CCC3C4C(CCC23C)c2ccc(O)cc2C[C@H]4C)c(OC)c1 (some centres unmarked) | 1.5
3 | COc1cc(CN2CCCC2)ccc1OCCC1CCC2C3C(CCC12C)c1ccc(O)cc1C[C@H]3C (some centres unmarked) | 1.2
4 | CN(C)CCOC/C=C1\CCC2C3CCc4cc(O)ccc4C3CCC12C (centres unmarked) | 1.8
5 | COC(=O)/C=C/c1ccc(OC/C=C2\CCC3C4C(CCC23C)c2ccc(O)cc2C[C@H]4C)cc1 (some centres unmarked) | 5.3
6 | COc1cc(CN2CCCCC2)ccc1OCCC1CCC2C3C(CCC12C)c1ccc(O)cc1C[C@H]3C (some centres unmarked) | 0.6
7 | C[C@@H]1Cc2cc(O)ccc2C2CCC3(C)C(CCOCCN(C)C)CCC3C21 (some centres unmarked) | 4
8 | CCN(CC)Cc1ccc(OCCC2CCC3C4C(CCC23C)c2ccc(O)cc2C[C@H]4C)c(OC)c1 (some centres unmarked) | 2
9 | COc1cc(CO)ccc1OCCC1CCC2C3C(CCC12C)c1ccc(O)cc1C[C@H]3C (some centres unmarked) | 5
10 | CCN(CC)Cc1ccccc1OC/C=C1\CCC2C3C(CCC12C)c1ccc(O)cc1C[C@H]3C (some centres unmarked) | 4.7
11 | C[C@@H]1Cc2cc(O)ccc2C2CCC3(C)C(CCOc4ccc(C=O)cc4Cl)CCC3C21 (some centres unmarked) | 10
12 | CCN(CC)Cc1ccc(OCCC2CCC3C4CCc5cc(O)ccc5C4CCC23C)c(OC)c1 (centres unmarked) | 2

What follows are compounds tested on human endometrial Ishikawa cells (assay: Estrogenic activity, alkaline phosphatase, Ishikawa cell-based assay). Conditions: 72 hours.
Experimental: Ishikawa cell based assays were run in parallel on human endometrial Ishikawa cells treated with compound (2) or with 2-methoxyestradiol. 2-Methoxyestradiol is a compound reported in the literature as an anti-angiogenic agent. Cells were cultured in 96-well plates for 48 hours in estrogen- and phenol red-free medium (DMEM/Hamm's F12 medium) containing 5% fetal bovine serum stripped of endogenous estrogens with dextran coated charcoal (Sigma). Compound (2) or other test compounds were then added to the cells and culturing was continued for an additional 72 hours. To the control cells (no (2)), 10^−9 M of […] was added. At the end of 72 hours, alkaline phosphatase activity was measured by adding 5 mM p-nitrophenyl phosphate, 0.24 mM MgCl2, and 1 M diethanolamine (pH 9.8) to the cells while the 96-well plates were kept on ice. The plates were then warmed to room temperature, and the yellow color from the production of p-nitrophenol was measured after 2-3 hours using an ELISA plate reader at a wavelength of 405 nm. The estrogenic activity was defined as the alkaline phosphatase activity stimulated by the test compounds alone as a percentage of that stimulated by estradiol at 10^−9 M. Stimulation by estradiol at 10^−9 M was taken as 100%.

Row | SMILES | estrogenic activity (alkaline phosphatase stimulation relative to estradiol at 10^−9 M)
13 | COc1cc2c(cc1O)CC[C@@H]1[C@@H]2CC[C@]2(C)[C@@H](O)CC[C@@H]12 [2-methoxyestradiol, 2-Methoxyestradiol, reference compound] | large amount of estrogenic activity

What follows are compounds tested on HIF-1α protein in PC-3 prostate cancer cells (assay: HIF-1α protein expression by immunoblotting, PC-3 cells). Conditions: PC-3, same hypoxic/anoxic conditions as for (2).
Type: cell-based, human
Experimental: (§1) Hypoxia experiments were performed in either of two ways. To produce a very low ambient oxygen concentration (effectively anoxia), we used a protocol in which cells were incubated in a 5% CO2-air atmosphere at 37° C. overnight and then placed in aluminum gas-exchange chambers maintained at 37° C. (Laderoute K R et al. Mol Cell Biol 22: 2515-2523, (2002); Laderoute K R et al. Mol Cell Biol 24: 4128-4137, (2004)). The chambers containing the cells were then placed in a 37° C. circulating water bath and the original atmosphere was repeatedly exchanged with 5% CO2-95% N2 using a manifold equipped with a vacuum pump and a gas cylinder. Atmospheric oxygen partial pressure (pO2) values of less than or equal to 0.01% (relative to air at pO2 of about 21%) can be achieved inside the chambers using this system. Following various hypoxic exposures, the chambers were opened an anaerobic glove box (Bactron X, Sheldon Manufacturing Inc., Cornelius, Oreg.; attached to a cylinder containing 5% CO2-95% N2) to prepare cell lysates without significant reoxygenation. All manipulations of hypoxic cells were performed in the anaerobic glove box. Atmospheric oxygen levels in both the chambers and the glove box have been measured and calibrated using a polarographic oxygen electrode (Oxygen Sensors, Inc., Norristown, Pa.). Hypoxia experiments involving a pO2 of 1% were performed by equilibrating the glove box with an atmosphere of 1% O2 5% CO2 95% N2 held at 37° C. with a circulating fan. Cells were incubated inside a humidified space in the glove box and the medium on the cells was gently and continually agitated by using a rotary shaker. For these experiments, we used RAW 264.7 immortalized mouse macrophages as normal control cells, PC-3 prostate cancer cells, and MDA-MB-231 breast cancer cells, all available from ATCC.
(§2) We used immunoblotting to evaluate the experiments. Nuclear lysates were used to detect HIF-1α protein by immunoblotting (Murphy B J et al. Biochem Biophys Res Commun (In Press): 2005). Briefly, cells were placed on ice in air or on Super Ice® cold packs in the anaerobic glove box and the medium was removed. […] After spinning at 9,000×g for 5 min at 4° C., the protein concentrations of the supernatants were determined by using a bicinchoninic acid assay (Pierce Biotechnology). […] Primary antibody binding was detected and visualized by using the ECL Plus Western Blotting Detection System (Amersham Pharmacia Biotech) according to the supplier's instructions. HIF-1α protein was detected by using an anti-HIF-1α monoclonal antibody (Novus Biologicals, Cat. No. NB100-123; diluted 1:500) and a horseradish peroxidase-conjugated anti-mouse IgG secondary antibody (Santa Cruz Biotechnology, Cat. No. sc-2062; diluted 1:20,000). […]

Row | SMILES | HIF-1α protein expression, standard HIF-1 inhibitors
14 | COc1cc2c(cc1O)CC[C@@H]1[C@@H]2CC[C@]2(C)[C@@H](O)CC[C@@H]12 [2-methoxyestradiol, 2-Methoxyestradiol, reference compound] | did not find any effect
15 | OCc1ccc(-c2nn(Cc3ccccc3)c3ccccc23)o1 [YC-1, reference compound] | did not find that YC-1, another standard HIF-1 inhibitor, could reproducibly inhibit

The compounds below were run on HIF-1α protein in MDA-MB-231 human breast carcinoma cells (assay: HIF-1α protein expression by immunoblotting, MDA-MB-231 cells). Conditions: MDA-MB-231, same hypoxic/anoxic conditions as for (2).
Type: cell-based
Experimental: as §1, with “Hypoxia experiments involving a pO2 of 1% were performed by equilibrating the glove box with an atmosphere of 1% O2 5% CO2 95% N2 held at 37° C. with a circulating fan. Cells were incubated inside a humidified space in the glove box and the medium on the cells was gently and continually agitated by using a rotary shaker. For these experiments, we used RAW 264.7 immortalized mouse macrophages as normal control cells, PC-3 prostate cancer cells, and MDA-MB-231 breast cancer cells, all available from ATCC.” left out
as §2, with “experiments.” for “experiments. Nuclear lysates were used to detect HIF-1α protein by immunoblotting (Murphy B J et al. Biochem Biophys Res Commun (In Press): 2005). Briefly, cells were placed on ice in air or on Super Ice® cold packs in the anaerobic glove box and the medium was removed.”

Row | SMILES | HIF-1α protein expression, standard HIF-1 inhibitors
16 | COc1cc2c(cc1O)CC[C@@H]1[C@@H]2CC[C@]2(C)[C@@H](O)CC[C@@H]12 [2-methoxyestradiol, 2-Methoxyestradiol, reference compound] | did not find any effect
17 | OCc1ccc(-c2nn(Cc3ccccc3)c3ccccc23)o1 [YC-1, reference compound] | did not find that YC-1, another standard HIF-1 inhibitor, could reproducibly inhibit
